These results are taken from ChEMBL document CHEMBL4402526, “Design and Synthesis of Fungal-Selective Resorcylate Aminopyrazole Hsp90 Inhibitors” (J Med Chem, 2020).

The source made the active and inactive calls. The rule behind the calls is not given here.

Series [1] relates to Cryptococcus neoformans. Description: Antifungal activity against Cryptococcus neoformans H99 assessed as fungal growth inhibition at <= […] uM measured after 48 hrs by resazurin assay. In kind it is functional, organism-based. A general note: Alamar Blue is a resazurin reagent that responds to reducing activity.
A short description of series [2]: Microsomal stability in CD-1 mouse liver microsomes assessed as parent compound remaining at 1 uM measured at 60 mins by LC-MS/MS analysis. The format is ADME, Microsome. To be noted: read-out: Stability. (In general: Microsomes from liver hold many membrane-bound enzymes, among them those of drug oxidation.)
For series [3], the system named is Candida albicans. As to the kind of experiment: Antifungal activity against Candida albicans clinical isolate 2 assessed as fungal growth inhibition at <= […] uM measured after 48 hrs by resazurin assay. The format is functional, organism-based.

For the compound `Cn1nc(-c2ccc(OC(F)(F)F)cc2)cc1Nc1cc(O)cc(O)c1C(=O)N1Cc2cccnc2C1`, the result in series [1] and in series [3] was Active. In addition, the remaining at 1 h, 1 µM in series [2] turned out to be 3.9%.

Regarding `Cn1nc(-c2ccc(OC(F)(F)F)cc2)cc1Nc1cc(O)cc(O)c1C(=O)N1Cc2cn[nH]c2C1`, the outcome in series [1] and in series [3] was Active. For the same compound, the remaining at 1 h, 1 µM in series [2] was 20.6%.

As to `CC(C)(C)n1nc(-c2ccccc2)cc1Nc1cc(O)cc(O)c1C(=O)N1Cc2cccnc2C1`, the result in series [1] and in series [3] was Active.

In the case of `Cc1ccc(-c2cc(Nc3cc(O)cc(O)c3C(=O)N3Cc4ccccc4C3)n(C)n2)cc1`, the result in series [1] and in series [3] was Active.

Regarding `O=C(c1c(O)cc(O)cc1Nc1ccnn1Cc1ccco1)N1Cc2cccnc2C1`, the result in series [1] and in series [3] was Active.

Regarding `COc1ccc(Cn2nc(C)cc2Nc2cc(O)cc(O)c2C(=O)N2Cc3ccc(NC4CCN(C)CC4)cc3C2)cc1`, the outcome in series [1] and in series [3] was Active.

Take `O=C(c1c(O)cc(O)cc1Nc1ccnn1Cc1ccco1)N1Cc2ccccc2C1`: the result in series [1] and in series [3] was Active.

For the compound `COc1ccc(Cn2nc(C3CCCC3)cc2Nc2cc(O)cc(O)c2C(=O)N2Cc3cccnc3C2)cc1`, the result in series [1] and in series [3] was Active.

For the compound `Cn1nc(-c2ccc(C(F)(F)F)cc2)cc1Nc1cc(O)cc(O)c1C(=O)N1Cc2ccccc2C1`, the result in series [1] and in series [3] was Active.

Take `Cn1nc(-c2cccc(C(F)(F)F)c2)cc1Nc1cc(O)cc(O)c1C(=O)N1Cc2cn[nH]c2C1`: the outcome in series [1] and in series [3] was Active.

Turning to `CC(C)Cn1nccc1Nc1cc(O)cc(O)c1C(=O)N1Cc2cccnc2C1`, the result in series [1] and in series [3] was Active.

`Cn1nc(-c2ccccc2)cc1Nc1cc(O)cc(O)c1C(=O)N1Cc2ccccc2C1`: the outcome in series [1] and in series [3] was Active.

As to `CC(C)Cn1nccc1Nc1cc(O)cc(O)c1C(=O)N1Cc2cn[nH]c2C1`, the outcome in series [1] and in series [3] was Active.

On to `O=C(c1c(O)cc(O)cc1Nc1ccnn1CC1CCCCC1)N1Cc2cccnc2C1`, for which the outcome in series [1] and in series [3] was Active.

Take `Cc1ccccc1-c1cc(Nc2cc(O)cc(O)c2C(=O)N2Cc3cn[nH]c3C2)n(C)n1`: the result in series [1] and in series [3] was Active.

With `CC(C)c1ccc(Cn2nccc2Nc2cc(O)cc(O)c2C(=O)N2Cc3cn[nH]c3C2)cc1`, the outcome in series [1] and in series [3] was Active.

For `COc1ccc(Cn2nc(C)cc2Nc2cc(O)cc(O)c2C(=O)N2Cc3ccc(N4CCN(C)CC4)cc3C2)cc1`, the outcome in series [1] and in series [3] was Active.

For `Cn1nc(-c2ccc(C(F)(F)F)cc2)cc1Nc1cc(O)cc(O)c1C(=O)N1Cc2cn[nH]c2C1`, the outcome in series [1] and in series [3] was Active.

For the compound `O=C(c1c(O)cc(O)cc1Nc1ccnn1Cc1ccccc1)N1Cc2cn[nH]c2C1`, the outcome in series [1] and in series [3] was Active.

Take `O=C(c1c(O)cc(O)cc1Nc1cc(-c2ccccc2)nn1C1CCCCC1)N1Cc2cn[nH]c2C1`: the result in series [1] and in series [3] was Active.

In the case of `O=C(c1c(O)cc(O)cc1Nc1ccnn1Cc1cccnc1)N1Cc2cccnc2C1`, the outcome in series [1] and in series [3] was Active.

With `Cc1ccc(-c2cc(Nc3cc(O)cc(O)c3C(=O)N3Cc4cccnc4C3)n(C)n2)cc1`, the outcome in series [1] and in series [3] was Active.

Turning to `COc1ccc(Cn2nc(-c3ccccc3)cc2Nc2cc(O)cc(O)c2C(=O)N2Cc3cccc(F)c3C2)cc1`, the result in series [1] and in series [3] was Active.

Regarding `O=C(c1c(O)cc(O)cc1Nc1ccnn1C1CCCCC1)N1Cc2cccnc2C1`, the outcome in series [1] and in series [3] was Active.

As for `CC(C)c1cc(Nc2cc(O)cc(O)c2C(=O)N2Cc3cccnc3C2)n(C)n1`, the outcome in series [1] and in series [3] was Active.

For `Cn1nc(-c2cccc(C(F)(F)F)c2)cc1Nc1cc(O)cc(O)c1C(=O)N1Cc2cccnc2C1`, the outcome in series [1] and in series [3] was Active.

For `Cc1ccc(Cn2nc(C)cc2Nc2cc(O)cc(O)c2C(=O)N2Cc3ccccc3C2)cc1`, the outcome in series [1] and in series [3] was Active.

Take `COc1ccc(Cn2nc(-c3ccccc3)cc2Nc2cc(O)cc(O)c2C(=O)N2Cc3cn[nH]c3C2)cc1`: the result in series [1] and in series [3] was Active.

In the case of `CC(C)n1nccc1Nc1cc(O)cc(O)c1C(=O)N1Cc2ccccc2C1`, the outcome in series [1] and in series [3] was Active.

In the case of `O=C(c1c(O)cc(O)cc1Nc1ccnn1Cc1ccccc1)N1Cc2ccccc2C1`, the outcome in series [1] and in series [3] was Active.

Turning to `Cn1nc(-c2ccc(C(C)(C)C)cc2)cc1Nc1cc(O)cc(O)c1C(=O)N1Cc2ccccc2C1`, the outcome in series [1] and in series [3] was Active.

For the compound `COc1ccc(Cn2nc(C(C)C)cc2Nc2cc(O)cc(O)c2C(=O)N2Cc3cccnc3C2)cc1`, the result in series [1] and in series [3] was Active.

For the compound `CC(C)n1nccc1Nc1cc(O)cc(O)c1C(=O)N1Cc2cccnc2C1`, the result in series [1] and in series [3] was Active.

Turning to `O=C(c1c(O)cc(O)cc1Nc1ccnn1-c1ccccc1)N1Cc2ccccc2C1`, the result in series [1] and in series [3] was Active.

As to `COc1ccc(Cn2ncc(C(C)C)c2Nc2cc(O)cc(O)c2C(=O)N2Cc3ccccc3C2)cc1`, the result in series [1] and in series [3] was Active.

Regarding `O=C(c1c(O)cc(O)cc1Nc1ccnn1Cc1ccc(C(F)(F)F)cc1)N1Cc2cccnc2C1`, the result in series [1] and in series [3] was Active.

Turning to `COc1cccc(-c2cc(Nc3cc(O)cc(O)c3C(=O)N3Cc4cn[nH]c4C3)n(C)n2)c1`, the result in series [1] and in series [3] was Active. In addition, the remaining at 1 h, 1 µM in series [2] amounted to 7%.

On to `Cc1ccc(-c2cc(Nc3cc(O)cc(O)c3C(=O)N3Cc4cn[nH]c4C3)n(C)n2)cc1`, for which the outcome in series [1] and in series [3] was Active.

In the case of `COc1ccc(Cn2nc(-c3ccoc3)cc2Nc2cc(O)cc(O)c2C(=O)N2Cc3cccnc3C2)cc1`, the outcome in series [1] and in series [3] was Active.

With `CC(C)Cn1nc(-c2ccccc2)cc1Nc1cc(O)cc(O)c1C(=O)N1Cc2cn[nH]c2C1`, the outcome in series [1] and in series [3] was Active.
